Assay results as given in patent US20260209152A1, “Substituted Hydroxystilbene Compounds and Derivatives, Synthesis and Uses Thereof” (Kynan Duke IP, LLC, priority 2019, published 2026).
Values joined by “and” are separate entries in the source; they are usually repeats but may differ in a detail not shown here. Identical values can stand only once. Like-named read-outs stand apart in the source and are kept apart here.

Columns and labels:
[1] = test system: IL-17A secretion from human PBMC stimulated with antiCD3/antiCD28-coated beads; assay: PBMC IL-17 assay (assay number 1321); format: cell-based; conditions: for Max Eff.: IL-17 (1321): highest effect as percentage of control maximum effect
Experimental: Inhibition of IL-17A secretion from human PBMC stimulated with antiCD3/antiCD28-coated beads. LEO Pharma Open Innovation assay number 1321
The inflammatory skin disease psoriasis is characterized by cytokines IL-17A and TNFα. In the present assay, human peripheral blood mononuclear cells (PBMC) are stimulated with beads coated with antibodies against CD3 and CD28 to activate the T-cell receptor, and stimulated with IL-23 to promote T-helper17 activity. The cells are incubated for three days, then the secreted level of IL-17A is measured in the culture supernatant using AlphaLISA and the amount of living cells is measured by addition of resazurin (PrestoBlue®) to identify compounds that inhibit cell proliferation or viability. […] Compounds which inhibit IL-17A secretion may be expected to have efficacy in psoriasis.
• PBMC are isolated from fresh human buffy coats by centrifugation on Lymphoprep® following instructions from Sebmate® • Cells are spun down and resuspended in freezing medium (RPMI1640+20% FBS+5% DMSO) • Cells are frozen in aliquots of 8×10^7 cells/vial matching one 384 plate. Cells are placed in Coolcell box and placed in −80° C. freezer for one day. Vials are moved to the −150° C. freezer in a prechilled box.
• Prepare assay medium: RPMI1640+10% heat inactivated FBS and 1% pen/strep, supplemented with human IL-23, 20 ng/mL (R&D systems, cat no 1290-IL-010) • Test compounds: Prepare compound-containing source plate, i.e. titrations in DMSO to be transferred to the assay plate. • Add 70 nL compounds and controls from the source plate to the assay plate. • Thaw the cells by adding 1 vial to 20 ml warm assay medium • Centrifuge the cells down at 170 G in 10 minutes, remove the supernatant and resuspend in new medium. • Filter the cells though a 37 µm strainer. • Count the cells in the cell counter. • Beads (T Cell Activation/Expansion Kit-human, Miltenyi Biotech, cat. no. 130-091-441): Coat beads with antibodies (antiCD3 and antiCD28) according to the kit procedure. • Add the beads to the cells, one bead per cell, 2.1e+06 cells/ml. Use a pipette to mix the cells and beads carefully. • Seed the cell/bead mixture into the assay plate, 70 μL/well ([…]) • Place the plates in a humidity chamber with lid (24.5×24.5 cm box added H2O in the bottom). • Incubate plates at 37° C., 5% CO2/95% air for 3 days.
• IL-17A concentration in the supernatants is measured using an alphaLISA kit (Perkin Elmer, cat no. AL219F). • Pretest to find optima dilution of samples: Test 5 μL supernatant from control wells and run IL-17A alphaLISA assay with only 2 hours of incubation. • When data are available, remove assay plates from incubation and equilibrate to room temperature for 30 minutes. • Transfer 5 μL or corrected amounts of supernatant to a 384-proxy plate • Add 5 μL alphaLISA acceptor beads. • Incubate 1 hour at room temperature • Add 5 μL donor beads • Incubate overnight at room temperature protected from light. • Add 7 μL PrestoBlue reagent (resazurin)/well to the assay plate and incubated for 2-4 hours at 37° C./5% CO2. The fluorescence in the wells is measured (Ex615/Em 535).
IL-17A concentration in the supernatants is measured using an alphaLISA kit (Perkin Elmer, cat no. AL219F).
The capacity of the test compound to inhibit IL-17A release is normalized to the signal in the negative control wells treated with a toxic compound, Terfenadine.

[2] = test system: Pancreatic MIA PaCa-2; assay: CellTiter Glo cell viability assay; format: cell-based, human
Summary of the method: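 MIA PaCa-2 human pancreatic cancer cells were plated in 96-well plates, 1.7*10^3 cells/well in quadruplicate, and compounds were added as serial dilutions to build dose-response curves. Viability was read by CellTiter Glo Luminescence (Promega) on a Varioskan LUX reader. Relative luminescence was plotted against log dose, and IC50 was obtained by nonlinear regression in GraphPad Prism 7.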

[3] = test system: Kidney A-498; assay: CellTiter Glo cell viability assay; format: cell-based, human
Summary of the method: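 Cell viability of the human renal line A498 was measured by luminescence using CellTiter Glo (Promega), following the manufacturer's protocol, after plating 1.7*10^3 cells/well in 96-well plates. Relative luminescence units were plotted against log dose, and dose-response curves were fitted by nonlinear regression in GraphPad Prism 7 to derive IC50 values.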

[4] = inhibition of IL-17A secretion, human PBMC, read-out: Abs EC50: IL-17 (1321)
[5] = Homo sapiens, MIA PaCa-2, 72 h, 3 Days of treatment, 18 2-fold dilutions 5-0.00003 μM, read-out: Average IC50
[6] = Homo sapiens, MIA PaCa-2, 72 h, Table 4: 3 Days of treatment, 18 2-fold dilutions 5-0.00003 μM, Average (1, 8) or single Exp A-D, read-out: IC50
[7] = Homo sapiens, MIA PaCa-2, 120 h, Day 5 upon drug treatment, 10 dosages 0.0001-20 μM (Compound 8: 18 dosages 0.000038146 to 5 μM), read-out: IC50
[8] = Homo sapiens, MIA PaCa-2, MIA PaCa-2/CRL-1420, 11 dilutions 3-0.00001 μM, Table 6, read-out: IC50
[9] = Homo sapiens, MIA PaCa-2, Table 5A: 11 dilutions 3-0.00001 μM, average of experiments, read-out: IC50 average
[10] = Homo sapiens, A498, 72 h, 3 Days of treatment, 18 2-fold dilutions 5-0.00003 μM, read-out: Average IC50
[11] = Homo sapiens, A498, 72 h, Table 4: 3 Days of treatment, 18 2-fold dilutions 5-0.00003 μM, Average (1, 8) or single Exp A-D, read-out: IC50
[12] = Homo sapiens, A498, A-498/HTB-44, 11 dilutions 3-0.00001 μM, Table 6, read-out: IC50
[13] = Homo sapiens, A498, Table 5A: 11 dilutions 3-0.00001 μM, average of experiments, read-out: IC50 average
[14] = IC50 of 1 [KYN-001] vs 8 [KYN-119], 3 Days
[15] = Table 5A: 11 dilutions 3-0.00001 μM, average of experiments, read-out: IC50 average
[16] = Homo sapiens, MIA PaCa-2, Table 5A: 11 dilutions 3-0.00001 μM, single experiments Exp E-K, read-out: IC50
[17] = Table 5A: 11 dilutions 3-0.00001 μM, single experiments Exp E-K, read-out: IC50
[18] = Homo sapiens, A498, Table 5A: 11 dilutions 3-0.00001 μM, single experiments Exp E-K, read-out: IC50

| Compound | IC50 [2, 8] | IC50 [2, 9] | IC50 [2, 16] | Max Eff.: IL-17 (1321) [1] | EC50 [1, 4] | IC50 [3, 12] | IC50 [3, 13] | IC50 [3, 18] | further results |
| --- | --- | --- | --- | --- | --- | --- | --- | --- | --- |
| CCOc1cc(O)cc(/C=C/c2ccc(O)c(O)c2)c1CC=C(C)C [Compound 20, (E)-4-(3-Ethoxy-5-hydroxy-2-(3-methylbut-2-en-1-yl)styryl)benzene-1,2-diol] | 54.9 nM | – | – | 85% | 1650 nM | 620 nM | – | – | – |
| COc1cc(/C=C/c2cc(O)cc(OC)c2CC=C(C)C)ccc1NC=O [Compound 27, (E)-N-(4-(5-hydroxy-3-methoxy-2-(3-methylbut-2-en-1-yl)styryl)-2-methoxyphenyl)formamide] | 21.4 nM | 15 nM | 10 to 100 nM | 65% | 2120 nM | 642 nM | 728 nM | – | reduction of IL-17A release, in words [1]: significantly less effective; Fold more potent than 1 [KYN-001] ([2]; MIA PaCa-2 cells): approximately 5; IC50 [2, 17]: 14.7 nM and 13.4 nM and 16.8 nM |
| CCOc1cc(O)cc(/C=C/c2ccc(NC=O)c(OC)c2)c1CC=C(C)C [Compound 28, (E)-N-(4-(3-Ethoxy-5-hydroxy-2-(3-methylbut-2-en-1-yl)styryl)-2-methoxyphenyl)formamide] | 12.9 nM | – | < 1 nM | 73% | 526 nM | 198 nM | – | 100 to 1000 nM | reduction of IL-17A release, in words [1]: low potency reduction of IL-17A release; EC50 ([1]; Homo sapiens, PBMC, read-out: EC50, inhibition of IL-17A secretion): 526 nM; Emax ([1]; Homo sapiens, PBMC, read-out: maximum efficacy, IL-17A secretion): 73%; IC50 [2, 17]: 0.94 nM and 0.936 nM; IC50 [3, 17]: 180 nM and 181 nM |
| CCOc1cc(O)cc(/C=C/c2ccc(NC(=O)C(=O)O)c(OC)c2)c1CC=C(C)C [Compound 35, (E)-2-((4-(3-Ethoxy-5-hydroxy-2-(3-methylbut-2-en-1-yl)styryl)-2-methoxyphenyl)amino)-2-oxoacetic acid] | – | – | – | 19% | 5000 nM | – | – | > 3000 nM | – |

Now from value to compound, other results behind:

| IC50 [2, 8] | IC50 [2, 9] | IC50 [2, 16] | Compound | Max Eff.: IL-17 (1321) [1] | EC50 [1, 4] | IC50 [3, 12] | IC50 [3, 13] | IC50 [3, 18] | further results |
| --- | --- | --- | --- | --- | --- | --- | --- | --- | --- |
| 109 nM | 80.6 nM | – | COc1cc(/C=C/c2cc(O)cc(OC)c2CC=C(C)C)ccc1O [Compound 1, (E)-3-(4-hydroxy-3-methoxystyryl)-5-methoxy-4-(3-methylbut-2-en-1-yl)phenol] | 54% | 4430 nM | 1070 nM | 1140 nM | – | IC50 [2, 5]: 127 nM; IC50 ([2]; Homo sapiens, MIA PaCa-2, 72 h, Day 3 upon drug treatment, 10 dosages 0.0001-20 μM, read-out: IC50): 204 nM; IC50 [2, 6]: 888 nM; IC50 [2, 7]: 50.7 nM; IC50 [3, 10]: 2810 nM; IC50 [3, 11]: 109 nM |
| 23.4 nM | 25 nM | – | CCOc1cc(O)cc(/C=C/c2ccc(O)c(OC)c2)c1CC=C(C)C [Compound 8, (E)-3-Ethoxy-5-(4-hydroxy-3-methoxystyryl)-4-(3-methylbut-2-en-1-yl)phenol] | 69% | 1550 nM | 401 nM | 360 nM | – | IC50 [2, 5]: 18.1 nM; IC50 [2, 6]: 210 nM; IC50 [2, 7]: ~0.47 nM; Fold IC50 [2, 14]: 7.0; IC50 [2, 15]: 25.5 nM; IC50 [3, 10]: 329 nM; IC50 [3, 11]: 10.3 nM; Fold IC50 [3, 14]: 8.5; IC50 [3, 15]: 430 nM |
| – | – | 3180 nM | COc1cc(/C=C/c2cc(O)cc(OC)c2CC=C(C)C)ccc1NC(=O)CN [Compound 31, (E)-2-amino-N-(4-(5-hydroxy-3-methoxy-2-(3-methylbut-2-en-1-yl)styryl)-2-methoxyphenyl)acetamide] | 53% | 4870 nM | – | – | > 3000 nM | – |
